Publication PMC5063506, “A Novel Class of Small Molecule Agonists with Preference for Human over Mouse TLR4 Activation” (PLoS ONE, 2016)

Key:
human TLR4 = molecular target: T1, human TLR4 (Homo sapiens, UniProt O00206+Q9Y6Y9); assay: Human TLR4 NFκB SEAP reporter gene assay in hTLR4-transfected HEK293 cells; type: cell-based; details: NFκB SEAP reporter, hTLR4-transfected HEK293 cells, 20 h; read-out: Human TLR4 pEC50 (converted)
T1 construct: expressed in transfected cells; host or cells: HEK293 with stably integrated pNiFty2-SEAP reporter
T1 sequence (O00206 24-839): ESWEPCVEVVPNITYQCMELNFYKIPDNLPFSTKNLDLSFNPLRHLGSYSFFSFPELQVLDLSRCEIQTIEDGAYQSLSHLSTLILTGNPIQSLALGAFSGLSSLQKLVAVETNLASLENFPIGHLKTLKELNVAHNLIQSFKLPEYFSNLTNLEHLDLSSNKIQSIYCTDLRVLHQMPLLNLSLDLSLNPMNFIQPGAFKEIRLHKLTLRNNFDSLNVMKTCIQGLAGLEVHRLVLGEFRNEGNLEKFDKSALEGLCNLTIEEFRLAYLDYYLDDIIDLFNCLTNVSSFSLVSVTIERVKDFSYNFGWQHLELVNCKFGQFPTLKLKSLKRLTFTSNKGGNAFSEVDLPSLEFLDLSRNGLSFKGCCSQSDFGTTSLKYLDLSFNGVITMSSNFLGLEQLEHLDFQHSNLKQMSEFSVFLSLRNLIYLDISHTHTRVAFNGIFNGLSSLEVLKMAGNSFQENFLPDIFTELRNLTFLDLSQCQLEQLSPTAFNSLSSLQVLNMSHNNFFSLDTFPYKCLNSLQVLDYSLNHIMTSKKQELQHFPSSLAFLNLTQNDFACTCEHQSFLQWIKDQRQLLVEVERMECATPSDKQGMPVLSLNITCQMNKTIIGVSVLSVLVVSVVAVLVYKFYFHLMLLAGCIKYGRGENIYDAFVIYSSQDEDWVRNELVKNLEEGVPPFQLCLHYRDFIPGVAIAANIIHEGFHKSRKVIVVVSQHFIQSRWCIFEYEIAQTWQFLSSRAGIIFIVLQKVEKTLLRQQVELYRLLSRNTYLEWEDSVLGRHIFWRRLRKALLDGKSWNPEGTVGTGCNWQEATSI
T1 sequence (Q9Y6Y9 19-160): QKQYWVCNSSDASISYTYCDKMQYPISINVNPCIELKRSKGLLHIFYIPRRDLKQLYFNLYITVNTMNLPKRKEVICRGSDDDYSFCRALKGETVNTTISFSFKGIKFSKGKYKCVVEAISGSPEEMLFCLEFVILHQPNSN
Procedure: HEK293 cells stably transfected with pNiFty2-SEAP reporter plasmid were transiently transfected with either human or mouse TLR4 (pUNO expression vector), in combination with either human or mouse CD14/MD2 (pDUO expression vector). Transient transfectants were seeded in Dulbecco’s Modified Eagle Medium, FCS 10% (v/v), 2 mM l glutamine and non-essential amino acids. Cells were seeded in tissue culture treated clear flat bottom polystyrene 96 well plates (Costar, 3598) at 1e4 cells/well. Concentration-response curves were generated by addition of test compounds and incubation for 20 h at 37°C in an atmosphere of 5% CO2. LPS (E. coli 0111:B4, Ultra-pure, Invivogen) or PHAD (Avanti Polar Lipids) was used as a positive control. The SEAP released was quantified using p nitrophenyl phosphate as a substrate, and the absorbance at 405 nm was measured at 30 second intervals over several minutes using a microplate reader. Some data are recorded as the pEC50, the negative log of the EC50 value. Other data generated from these reporter cell lines were converted to AUC (area under the curve) values by interpolation of fitted cubic spline curve between OD value and log concentration levels. The calculation is performed using MESS package in statistical software R (www.r-project.org/).

[1] = test system: guinea pig TLR4, MD2, and CD14; assay: Guinea-pig TLR4 reporter agonist assay (HEK293 SEAP, DDAO phosphate); type: cell-based; details: 10^-5 to 10^-10 M, 20 h, % of maximum 1 μM LPS signal
Text: Fragments of guinea pig TLR4 were identified by searching the Ensembl genome browser database (http://www.ensembl.org/index.html) using the BLAST algorithm and discontiguous mega blast of the NCBI trace archives (http://www.ncbi.nlm.nih.gov/blast/tracemb.shtml) using the DNA sequence of human TLR4 Isotype A as the search string. Guinea pig CD14 was assembled in silico from fragments identified in the NCBI trace archives using human CD14 as the search string (76% similar/72% identical). Fragments corresponding to guinea pig MD2 were identified by searching the Ensembl genome browser database and NCBI trace archives with human MD2 as the search string (72% similar/68% identical). Sequence information was used to design primers for PCR amplification of full length coding sequences from guinea pig spleen cDNA. Sequences for guinea pig MD2 and CD14 were as predicted in silico. gpTLR4 was cloned into the expression vector pUNO (Invivogen). gpMD2 and gpCD14 were cloned together into pDUO (Invivogen) for co-expression. gpMD2 was also cloned into pUNO for transient co-expression with gpTLR4. A stable mixed population expressing gpTLR4 /CD14/MD2 was made by transfecting the gpTLR4/pUNO and gpMD2 + gpCD14/pDUO constructs into a HEK293 cell-line containing a stably integrated pNiFty2-SEAP reporter plasmid (Invivogen) using Fugene-6 (Roche). […]
SEAP detection assay was performed as previous described by. […] Plates were read using the Envision plate reader excitation λex 620nm, emission λem 665nm. Data was analyzed as % maximum 1 μM Ultrapure (0111:B4) LPS activation signal (Invivogen).
Fig 5 Ugi compounds activate guinea pig TLR4/MD2-HEK transfectants. […] The plates were developed with the addition of DDAO phosphate as substrate and then read on a plate reader at 620 nm. Data were analyzed as % of the maximum 1 μM Ultrapure (0111:B4) LPS activation signal.

## Cc1ccc(N(C(=O)c2cc(-c3ccccc3)n(-c3ccccc3)n2)C(C(=O)NC2CCCC2)c2ccc(CC(=O)O)cc2)cc1Cl (stereo not shown) [AZ161]
Human TLR4
  EC50: 20 nM
[1]
  potency on gpTLR4/gpMD2/gpCD14 HEK293 transfectants: potency comparable to LPS

## O=C(O)Cc1ccc(C(C(=O)NC2CCCC2)N(C(=O)c2cc(-c3ccccc3)n(-c3ccccc3)n2)c2ccc3c(c2)CCC3)cc1 (stereo not shown) [AZ617]
Human TLR4
  EC50: 5.01 nM
[1]
  potency on gpTLR4/gpMD2/gpCD14 HEK293 transfectants: potency comparable to LPS

## Cc1cc(C)cc(N(C(=O)c2cc(-c3ccccc3)n(-c3ccccc3)n2)C(C(=O)NC2CCCC2)c2ccc(CC(=O)O)cc2)c1 (stereo not shown) [AZ618, 2-(4-(2-(cyclopentylamino)-1-(N-(3,5-dimethylphenyl)-1,5-diphenyl-1H-pyrazole-3-carboxamido)-2-oxoethyl)phenyl)acetic acid]
Human TLR4
  EC50: 20 nM

## CC(C)(C)c1ccc(N(C(=O)c2cc(-c3ccccc3)n(-c3ccccc3)n2)C(C(=O)NC2CCCC2)c2ccc(CC(=O)O)cc2)cc1 (stereo not shown) [AZ902]
Human TLR4
  EC50: 6.31 nM
[1]
  potency on gpTLR4/gpMD2/gpCD14 HEK293 transfectants: less active but still positive
